Test results from ChEMBL document CHEMBL1128763, “Synthesis of 2-substituted d-tryptophan-containing peptide derivatives with endothelin receptor antagonist activity” (Bioorg Med Chem Lett, 1995).

Tests used:
Endothelin-1 receptor [1] = biological target: T1, Endothelin-1 receptor (Homo sapiens, UniProt P25101); test: Functional inhibition of ET-1 induced [Ca2+] increase in human neuroblastoma-derived SK-N-MC cells, which express Endothelin A receptor; type: cell-based
T1 sequence (P25101 whole entry): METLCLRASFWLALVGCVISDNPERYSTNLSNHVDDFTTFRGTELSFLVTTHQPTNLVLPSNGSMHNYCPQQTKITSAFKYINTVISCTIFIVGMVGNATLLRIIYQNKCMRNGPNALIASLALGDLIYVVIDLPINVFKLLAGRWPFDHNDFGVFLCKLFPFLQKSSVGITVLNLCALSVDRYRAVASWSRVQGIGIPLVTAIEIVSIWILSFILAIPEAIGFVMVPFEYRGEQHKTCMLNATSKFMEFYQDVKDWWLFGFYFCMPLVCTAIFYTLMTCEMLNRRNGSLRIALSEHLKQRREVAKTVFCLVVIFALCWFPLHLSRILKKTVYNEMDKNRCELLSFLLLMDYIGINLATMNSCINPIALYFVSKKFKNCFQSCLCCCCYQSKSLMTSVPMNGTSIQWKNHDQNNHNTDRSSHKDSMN

[2] = biological target: T2, Endothelin receptor type B (Homo sapiens, UniProt P24530); test: Functional inhibition of ET-1 induced [Ca2+] increase in human Girardi heart (hGH) cells, which express Endothelin B receptor
T2 sequence (P24530 whole entry): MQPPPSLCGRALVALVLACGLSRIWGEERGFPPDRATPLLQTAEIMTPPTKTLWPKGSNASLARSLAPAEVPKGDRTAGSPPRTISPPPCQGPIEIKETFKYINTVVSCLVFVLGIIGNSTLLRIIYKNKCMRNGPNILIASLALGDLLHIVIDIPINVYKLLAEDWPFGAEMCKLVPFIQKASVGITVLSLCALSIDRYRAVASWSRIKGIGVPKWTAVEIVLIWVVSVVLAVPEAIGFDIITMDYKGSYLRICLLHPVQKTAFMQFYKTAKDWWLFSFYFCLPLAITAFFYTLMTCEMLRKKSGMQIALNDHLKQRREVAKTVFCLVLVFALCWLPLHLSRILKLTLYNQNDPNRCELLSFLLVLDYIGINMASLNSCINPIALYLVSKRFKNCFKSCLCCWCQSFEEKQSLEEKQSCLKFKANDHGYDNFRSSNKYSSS

Endothelin-1 receptor [3] = biological target: T3, Endothelin-1 receptor (Sus scrofa, UniProt Q29010); test: Inhibitory activity against 125 I-labeled ET-1 binding to Endothelin A receptor in porcine aortic smooth muscle membranes.
T3 sequence (Q29010 whole entry): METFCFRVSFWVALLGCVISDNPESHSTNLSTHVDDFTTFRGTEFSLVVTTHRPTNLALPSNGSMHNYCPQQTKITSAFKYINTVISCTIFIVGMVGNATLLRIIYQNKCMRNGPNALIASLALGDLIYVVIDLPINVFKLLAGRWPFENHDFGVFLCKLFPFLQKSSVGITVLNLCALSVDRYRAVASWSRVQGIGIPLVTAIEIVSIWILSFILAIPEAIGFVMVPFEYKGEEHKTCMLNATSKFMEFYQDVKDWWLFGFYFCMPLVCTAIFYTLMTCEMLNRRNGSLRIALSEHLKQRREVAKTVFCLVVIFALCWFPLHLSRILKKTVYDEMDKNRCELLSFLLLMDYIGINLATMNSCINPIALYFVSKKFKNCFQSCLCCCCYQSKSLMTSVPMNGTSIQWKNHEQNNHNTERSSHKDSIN

[4] = biological target: T4, Endothelin receptor type B (Sus scrofa, UniProt P35463); test: Inhibitory activity against 125 I-labeled ET-1 binding to Endothelin B receptor in porcine cerebellum membranes; type: cell membranes, Membrane
T4 sequence (P35463 whole entry): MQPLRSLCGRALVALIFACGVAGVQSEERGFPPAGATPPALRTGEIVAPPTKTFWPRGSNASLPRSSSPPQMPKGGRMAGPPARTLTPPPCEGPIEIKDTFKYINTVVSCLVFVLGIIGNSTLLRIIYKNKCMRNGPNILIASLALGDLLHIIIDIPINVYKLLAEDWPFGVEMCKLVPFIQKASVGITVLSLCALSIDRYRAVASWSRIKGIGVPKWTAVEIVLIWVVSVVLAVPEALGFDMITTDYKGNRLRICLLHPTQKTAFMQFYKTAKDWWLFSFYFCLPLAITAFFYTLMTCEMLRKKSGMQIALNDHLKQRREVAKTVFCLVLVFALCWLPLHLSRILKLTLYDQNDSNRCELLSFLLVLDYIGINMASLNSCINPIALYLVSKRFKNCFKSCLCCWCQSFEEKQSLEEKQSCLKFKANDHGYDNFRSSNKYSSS

| IC50 (Endothelin-1 receptor [1]) | IC50 [2] | IC50 (Endothelin-1 receptor [3]) | IC50 [4] | Structure (SMILES) |
| --- | --- | --- | --- | --- |
| 6.1 µM | 0.004 µM |  |  | CCCC[C@@H](NC(=O)[C@@H](Cc1c(C#N)[nH]c2ccccc12)NC(=O)[C@@H](NC(=O)N1[C@H](C)CCC[C@@H]1C)C(C)C)C(=O)O |
| 0.016 µM | 0.0008 µM |  |  | CCCC[C@@H](NC(=O)[C@@H](Cc1c(Br)[nH]c2ccccc12)NC(=O)[C@@H](NC(=O)N1[C@H](C)CCC[C@@H]1C)C1CC1)C(=O)O |
|  |  | 0.28 µM | 0.0012 µM | CCCC[C@@H](NC(=O)[C@@H](Cc1cn(C(=O)OC)c2ccccc12)NC(=O)[C@H](CC(C)(C)C)NC(=O)N1[C@H](C)CCC[C@@H]1C)C(=O)O |
|  |  | 0.022 µM |  | CC(C)C[C@@H]1NC(=O)[C@@H](C(C)C)NC(=O)C2CCCN2C(=O)[C@@H](CC(=O)O)NC(=O)[C@@H](Cc2c[nH]c3ccccc23)NC1=O (single isomer, unassigned) [BQ-123] |
